Measured values published in patent publication US5326751A, “Enkephalin analogs” (Arizona Board of Regents on behalf of the University of …, priority 1992, dated 1994).
Bridge positions count the residues as written; N and C are the ends. Square brackets hold non-standard residues; d marks the D form. Peptide text beside a SMILES is read from it. Phe(4-NO2) = N[C@@H](Cc1ccc([N+](=O)[O-])cc1)C(=O)O; Phe(4-Br) = N[C@@H](Cc1ccc(Br)cc1)C(=O)O; Phe(4-Cl) = N[C@@H](Cc1ccc(Cl)cc1)C(=O)O; Phe(4-F) = N[C@@H](Cc1ccc(F)cc1)C(=O)O; Phe(4-I) = N[C@@H](Cc1ccc(I)cc1)C(=O)O; dPen = CC(C)(S)[C@@H](N)C(=O)O; dAbu = CC[C@@H](N)C(=O)O; Ac5c = NC1(C(=O)O)CCCC1; Abu = CC[C@H](N)C(=O)O

What was measured:
[1] = molecular target: T1, mouse vas deferens (MVD), primarily delta-type opiate receptors (Mus musculus, UniProt P32300); experiment: mouse vas deferens (MVD) assay: inhibition of electrically induced muscle contractions; type: cell-based; conditions: for IC50: mouse vas deferens, electrically stimulated contractions, read-out: IC50 (nM) ± S.E.E. MVD
T1 construct: from tissue; host or cells: mouse vas deferens
Experimental: The MVD preparation contains primarily delta-type opiate receptors, with some kappa and mu receptors.
The mouse vas deferens was prepared following the method of Hughes, et al. cites Brit. J. Pharmacol., 53, 371-381 (1975). One pair of vasa deferentia was used in each experiment.

[2] = molecular target: guinea pig ileum (GPI), primarily mu-type opiate receptors (Cavia porcellus, UniProt P97266); experiment: guinea pig ileum (GPI) assay: inhibition of electrically induced muscle contractions; type: cell-based; design: inh in GPI: dose or concentration left out as unconfirmed; conditions: for IC50: guinea pig ileum, electrically stimulated contractions, read-out: IC50 (nM) ± S.E.E. GPI
Experimental: The guinea pig ileum longitudinal muscle-myenteric plexus preparation was prepared following the method of Kosterlitz, et al. Brit. J. Pharmacol., 39, 398-413 (1970). Agonists were added to the tissue bath and remained in contact with the tissue for a maximum of three minutes.

[3] = molecular target: T2, delta-type opioid receptors (Rattus norvegicus, UniProt P33533); experiment: displacement of [3H][p-Cl-Phe4]DPDPE in rat brain homogenate; type: binding; conditions: for IC50: rat brain homogenate, 1 nM radioligand, 25° C., 40 min, read-out: IC50 (nM) ± S.E.E. [3H] p-Cl-DPDPE
T2 construct: Whole brains with cerebellum removed were homogenized in 100 volumes of Tris-HCl buffer; from tissue; host or cells: rat brain (without cerebellum), washed homogenate
Experimental: (§1) The binding potencies of each compound for mu and delta receptors in rat brain extracts was determined by competition assays against radiolabelled compounds known to bind opioid receptors. […] The ability of a tested compound to displace tritiated ligands from their respective receptor molecules is a measure of the compound's binding potency for the receptor of the displaced ligand.
(§2) Brains from male Sprague-Dawley rats were rapidly removed following sacrifice. Whole brains with cerebellum removed were homogenized in 100 volumes of Tris-HCl buffer (pH 7.4 at 25°). Tissue homogenates were washed twice in the same buffer by centrifugation at 48,000 g for 10 min. Pellets were resuspended in the same buffer.
Total incubation volume was 2 ml. After 40 min., the mixture was rapidly filtered through Whatman GF/B glass fiber filters and washed 3 times with 5 ml of ice-cold buffer.
(§3) Filter-bound radioactivity was quantitated by liquid scintillation spectrophotometry with an efficiency of 46%. Radio-ligand displaced by 1 μM natrexone hydrochloride was defined as specific tissue binding.

mu-type opioid receptors = molecular target: T3, mu-type opioid receptors (Rattus norvegicus, UniProt P33535); experiment: displacement of [3H]CTOP in rat brain homogenate; type: binding; conditions: 25° C., read-out: IC50 (nM) ± S.E.E. [3H] CTOP
T3 construct: Whole brains with cerebellum removed were homogenized in 100 volumes of Tris-HCl buffer; from tissue; host or cells: rat brain (without cerebellum), washed homogenate
Experimental: as §1, §2, §3

T3 sequence (P33535 whole entry): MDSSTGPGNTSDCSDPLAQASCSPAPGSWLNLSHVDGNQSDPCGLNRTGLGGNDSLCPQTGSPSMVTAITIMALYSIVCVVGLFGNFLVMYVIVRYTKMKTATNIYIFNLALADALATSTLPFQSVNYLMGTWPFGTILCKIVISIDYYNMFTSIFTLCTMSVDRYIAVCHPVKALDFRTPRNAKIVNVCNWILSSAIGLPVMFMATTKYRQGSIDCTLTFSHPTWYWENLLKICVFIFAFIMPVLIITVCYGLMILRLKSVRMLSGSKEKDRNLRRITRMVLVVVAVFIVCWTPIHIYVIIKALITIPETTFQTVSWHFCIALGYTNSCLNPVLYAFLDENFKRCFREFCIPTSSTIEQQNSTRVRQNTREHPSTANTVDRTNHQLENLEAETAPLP
Chain of guinea pig ileum (GPI), primarily mu-type opiate receptors (P97266 whole entry, looked up): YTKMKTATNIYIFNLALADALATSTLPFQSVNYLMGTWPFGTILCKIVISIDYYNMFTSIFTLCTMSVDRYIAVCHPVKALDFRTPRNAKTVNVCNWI
T1 sequence (P32300 whole entry): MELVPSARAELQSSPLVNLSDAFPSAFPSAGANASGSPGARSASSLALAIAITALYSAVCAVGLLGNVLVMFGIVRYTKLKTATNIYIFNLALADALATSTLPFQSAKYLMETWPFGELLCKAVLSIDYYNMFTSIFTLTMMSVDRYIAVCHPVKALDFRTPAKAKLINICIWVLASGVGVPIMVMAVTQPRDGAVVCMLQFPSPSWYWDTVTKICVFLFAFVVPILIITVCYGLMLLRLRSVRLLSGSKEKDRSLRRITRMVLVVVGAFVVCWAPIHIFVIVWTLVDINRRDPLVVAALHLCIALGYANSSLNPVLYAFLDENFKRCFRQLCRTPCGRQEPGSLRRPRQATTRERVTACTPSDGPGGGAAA
T2 sequence (P33533 whole entry): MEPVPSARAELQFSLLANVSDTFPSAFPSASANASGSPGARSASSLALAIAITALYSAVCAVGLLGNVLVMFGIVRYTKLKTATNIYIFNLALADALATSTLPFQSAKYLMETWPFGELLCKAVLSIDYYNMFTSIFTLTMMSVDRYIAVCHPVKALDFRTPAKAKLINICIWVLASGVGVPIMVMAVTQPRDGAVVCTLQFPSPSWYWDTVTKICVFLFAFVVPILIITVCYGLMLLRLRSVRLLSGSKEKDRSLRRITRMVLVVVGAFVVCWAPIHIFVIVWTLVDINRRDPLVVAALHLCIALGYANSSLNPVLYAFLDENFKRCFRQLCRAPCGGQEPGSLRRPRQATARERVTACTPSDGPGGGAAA

Compound	IC50 [1]	IC50 [2]	IC50 [3]	IC50 (mu-type opioid receptors)	inh in GPI [2]	RATIO (μ/δ), Table 1 ([1]; GPI IC50 / MVD IC50)	RATIO (μ/δ), Table 2 ([3]; [3H]CTOP IC50 / [3H]p-Cl-DPDPE IC50, rat brain)
CC1(C)SSC(C)(C)[C@@H](NC(=O)[C@@H](N)Cc2ccc(O)cc2)C(=O)NC2(CCCC2)C(=O)N[C@@H](Cc2ccccc2)C(=O)N[C@H]1C(=O)O [[AC5 C^3]DPDPE] (H-Y[dPen][Ac5c]F[dPen]-OH; disulfide 2-5)	370 ± 162 nM	857 ± 31.7 nM	312 ± 39 nM	1760 ± 45 nM	–	–	–
CC[C@H]1NC(=O)[C@H](NC(=O)[C@@H](N)Cc2ccc(O)cc2)C(C)(C)SSC(C)(C)[C@H](C(=O)O)NC(=O)[C@H](Cc2ccccc2)NC1=O [[D--Abu^3]DPDPE] (H-Y[dPen][dAbu]F[dPen]-OH; disulfide 2-5)	1950 ± 204 nM	29900 ± 2670 nM	3380 ± 1070 nM	> 50000 nM	–	–	–
C[C@H]1NC(=O)[C@H](NC(=O)[C@@H](N)Cc2ccc(O)cc2)C(C)(C)SSC(C)(C)[C@H](C(=O)O)NC(=O)[C@H](Cc2ccccc2)NC1=O [[D--Ala^3]DPDPE] (H-Y[dPen][dA]F[dPen]-OH; disulfide 2-5)	572 ± 131 nM	33300 ± 817 nM	535 ± 58 nM	> 35000 nM	–	–	–
CC1(C)SSC(C)(C)[C@@H](NC(=O)[C@@H](N)Cc2ccc(O)cc2)C(=O)N[C@H](CO)C(=O)N[C@@H](Cc2ccccc2)C(=O)N[C@H]1C(=O)O [[D--Ser^3]DPDPE] (H-Y[dPen][dS]F[dPen]-OH; disulfide 2-5)	1280 ± 245 nM	–	764 ± 106 nM	> 50000 nM	3 % inh	–	–
CC[C@@H]1NC(=O)[C@H](NC(=O)[C@@H](N)Cc2ccc(O)cc2)C(C)(C)SSC(C)(C)[C@H](C(=O)O)NC(=O)[C@H](Cc2ccccc2)NC1=O [[L--Abu^3]DPDPE] (H-Y[dPen][Abu]F[dPen]-OH; disulfide 2-5)	84.9 ± 12.5 nM	4870 ± 345 nM	66.3 ± 30.4 nM	12000 ± 938 nM	–	–	–
C[C@@H]1NC(=O)[C@H](NC(=O)[C@@H](N)Cc2ccc(O)cc2)C(C)(C)SSC(C)(C)[C@H](C(=O)O)NC(=O)[C@H](Cc2ccccc2)NC1=O [[L--Ala^3 ]DPDPE (DPADPE), L-Tyrosyl-D-penicillaminyl-L--alanyl-L-phenylalanyl-D-penicillaminyl cyclic (2-5) disulfide] (H-Y[dPen]AF[dPen]-OH; disulfide 2-5)	11.8 ± 1.62 nM	121000 ± 81400 nM	18.4 ± 0.43 nM	11000 ± 13 nM	–	10,315	598
CC1(C)SSC(C)(C)[C@@H](NC(=O)[C@@H](N)Cc2ccc(O)cc2)C(=O)N[C@@H](CO)C(=O)N[C@@H](Cc2ccccc2)C(=O)N[C@H]1C(=O)O [[L--Ser^3]DPDPE] (H-Y[dPen]SF[dPen]-OH; disulfide 2-5)	252 ± 32.5 nM	39400 ± 7160 nM	42 ± 3 nM	> 22500 nM	–	–	–
C[C@@H]1NC(=O)[C@H](NC(=O)[C@@H](N)Cc2ccc(O)cc2)C(C)(C)SSC(C)(C)[C@H](C(=O)O)NC(=O)[C@H](Cc2ccc(Br)cc2)NC1=O [[p-Br--Phe^4 ]DPADPE] (H-Y[dPen]A[Phe(4-Br)][dPen]-OH; disulfide 2-5)	2.95 ± 0.686 nM	40800 ± 2950 nM	5.3 ± 0.86 nM	2710 ± 453 nM	–	–	–
C[C@@H]1NC(=O)[C@H](NC(=O)[C@@H](N)Cc2ccc(O)cc2)C(C)(C)SSC(C)(C)[C@H](C(=O)O)NC(=O)[C@H](Cc2ccc(Cl)cc2)NC1=O [[p-Cl--Phe^4 ]DPADPE] (H-Y[dPen]A[Phe(4-Cl)][dPen]-OH; disulfide 2-5)	1.94 ± 0.295 nM	25500 ± 10300 nM	3.7 ± 0.9 nM	1120 ± 260 nM	–	–	–
C[C@@H]1NC(=O)[C@H](NC(=O)[C@@H](N)Cc2ccc(O)cc2)C(C)(C)SSC(C)(C)[C@H](C(=O)O)NC(=O)[C@H](Cc2ccc(F)cc2)NC1=O [[p-F--Phe^4 ]DPADPE] (H-Y[dPen]A[Phe(4-F)][dPen]-OH; disulfide 2-5)	3.61 ± 0.367 nM	4600 ± 1010 nM	0.55 ± 0.14 nM	1460 ± 253 nM	–	–	–
C[C@@H]1NC(=O)[C@H](NC(=O)[C@@H](N)Cc2ccc(O)cc2)C(C)(C)SSC(C)(C)[C@H](C(=O)O)NC(=O)[C@H](Cc2ccc(I)cc2)NC1=O [[p-I--Phe^4 ]DPADPE] (H-Y[dPen]A[Phe(4-I)][dPen]-OH; disulfide 2-5)	11 ± 1.23 nM	30800 ± 1550 nM	12.5 ± 0.5 nM	3670 ± 396 nM	–	–	–
C[C@@H]1NC(=O)[C@H](NC(=O)[C@@H](N)Cc2ccc(O)cc2)C(C)(C)SSC(C)(C)[C@H](C(=O)O)NC(=O)[C@H](Cc2ccc([N+](=O)[O-])cc2)NC1=O [[p-NO2 --Phe^4 ]DPADPE] (H-Y[dPen]A[Phe(4-NO2)][dPen]-OH; disulfide 2-5)	3.74 ± 0.356 nM	13500 ± 1210 nM	3.5 ± 0.25 nM	712 ± 3 nM	–	–	–
